From patent publication US8921358B2, “Apoptosis signal-regulating kinase 1 inhibitors” (Takeda Pharmaceutical Company Limited, priority 2008, dated 2014) come the findings set out here.

The target of this experiment is T1, human ASK1 (Homo sapiens, UniProt Q99683).
T1 construct: a 2.2 kb DNA fragment containing an ASK1 gene was recovered from the gel; made in house; host or cells: Sf-21 insect cells, recombinant baculovirus (pFASTBAC1, Bac-to-Bac)
T1 sequence (Q99683 649-1374 limits assumed): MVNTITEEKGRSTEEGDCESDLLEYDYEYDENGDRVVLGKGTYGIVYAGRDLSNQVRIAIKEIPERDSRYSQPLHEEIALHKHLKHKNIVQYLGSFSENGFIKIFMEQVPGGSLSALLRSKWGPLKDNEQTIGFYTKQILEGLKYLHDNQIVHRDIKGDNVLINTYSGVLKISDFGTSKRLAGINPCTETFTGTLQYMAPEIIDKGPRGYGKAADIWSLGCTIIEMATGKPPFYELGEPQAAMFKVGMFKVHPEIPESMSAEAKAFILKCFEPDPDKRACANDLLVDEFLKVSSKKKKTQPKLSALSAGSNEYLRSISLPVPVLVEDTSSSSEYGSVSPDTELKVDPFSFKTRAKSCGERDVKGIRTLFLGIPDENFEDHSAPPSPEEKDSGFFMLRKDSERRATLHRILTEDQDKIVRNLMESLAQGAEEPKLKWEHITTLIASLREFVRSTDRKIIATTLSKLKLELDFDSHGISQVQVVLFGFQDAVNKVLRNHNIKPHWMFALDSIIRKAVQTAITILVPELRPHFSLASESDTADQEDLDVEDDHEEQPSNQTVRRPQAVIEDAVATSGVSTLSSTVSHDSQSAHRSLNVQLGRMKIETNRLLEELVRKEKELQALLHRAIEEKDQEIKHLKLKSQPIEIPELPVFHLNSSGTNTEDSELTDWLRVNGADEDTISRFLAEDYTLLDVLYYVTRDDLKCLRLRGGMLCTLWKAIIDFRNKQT
The experiment is described as follows: Scintillation assay measuring inhibition of ASK1 phosphorylation of myelin basic protein. It is filed as biochemical. The note with it: active ASK1 protein 30 ng, myelin basic protein 1 μg, [γ-32P]ATP, room temperature 30 min; values given as ranges; read-out: Enzyme Activity IC50. On the procedure:
Cloning of cDNA encoding human ASK1 was conducted by PCR using primers, 5′-[…] AGAGAAGGGGA-3′ (SEQ ID NO: 1) and 5′-[…]-3′ (SEQ ID NO: 2), from human heart cDNA library (Becton, Dickinson and Company). The PCR product was subjected to agarose gel (1%) electrophoresis, a 2.2 kb DNA fragment containing an ASK1 gene was recovered from the gel, and then digested with restriction enzymes, NotI and SalI, and inserted into a plasmid pFASTBAC1 (Invitrogen) to prepare a plasmid pFB-ASK1. The insert was verified by sequencing. Recombinant baculovirus was prepared according to the procedure of the Bac-to-Bac baculovirus expression system (Invitrogen).
Sf-21 cells were seeded to achieve 1×10^6 cells/mL in 100 mL of Sf-900 II SFM medium (Invitrogen) which contains 10% fetal calf serum and then cultured at 27° C. for 24 hrs. To express ASK1 in cells, 0.15 mL of the recombinant baculovirus virus stock was added to cells, and the then cultured for 60 hrs. The cells were separated from the culture solution by centrifugation at 3000 rpm for 10 min and washed once with PBS. The cells were suspended in 10 mL of lysis buffer (25 mM HEPES (pH 7.5), 1% Triton X, 130 mM NaCl, 1 mM EDTA, 1 mM DTT, 25 mM β-glycerophosphate, Protease inhibitor complete (Roche), 1 mM sodium orthovanadate) and ruptured by four times of treatment with a homogenizer (POLYTRON) at 20000 rpm for 30 seconds. Active ASK1 protein was purified from a supernatant obtained by centrifugal separation at 40000 rpm for 45 min using anti-FLAG M2 Affinity Gel (Sigma).
The test compounds (2.5 μl) dissolved in DMSO were added to wells containing 37.5 μl of the reaction solution (25 mM HEPES (pH 7.5), 10 mM magnesium acetate, 1 mM DTT) including 30 ng of active ASK1 protein and 1 μg of myelin basic protein (Wako), and incubated at room temperature for 5 min. To start the reaction, 10 μL of ATP solution (2.5 μM ATP, 0.1 μCi [γ-^32P]ATP) was added to wells. After incubating at room temperature for 30 min, the reaction was terminated by adding 50 μl of 20% TCA solution. The reaction solution was incubated at 4° C. for 30 min and an acid-insoluble fraction was transferred onto a GF/C filter (Packard) with Cell Harvester (Packard), and washed with 250 mM phosphoric acid. After drying at 45° C. for 60 min., 40 μL of Microscint 0 (Packard) was added and the radioactivity was measured with TopCount (Packard). The concentrations (IC50 value) of the test compounds necessary for 50% inhibition of kinase activity were calculated by PRISM 3.0 (Graphpad Software).
The enzyme activities of selected compounds of the present invention against ASK1 were determined using the assay disclosed in Example A and B. The resulted pIC50 values are reported in Table 1.

In the case of `CC(C)(C)c1ccc(C(=O)Nc2cc(N3CCc4ccccc4C3)n3nccc3n2)cc1` [Compound 66, 4-tert-butyl-N-(7-(3,4-dihydroisoquinolin-2(1H)-yl)pyrazolo[1,5-a]pyrimidin-5-yl)benzamide], the IC50 is under 100 nM.

Turning to `CC(C)(O)c1ccc(C(=O)Nc2cc(N3CCC[C@H](O)C3)n3nccc3n2)cc1` [Compound 78, (S)—N-(7-(3-hydroxypiperidin-1-yl)pyrazolo[1,5-a]pyrimidin-5-yl)-4-(2-hydroxypropan-2-yl)benzamide], the IC50 was in the range of 100 to 1000 nM.

`Cc1cc2nc(NC(=O)c3ccc(C(C)(C)O)nc3)cc(-c3ccccc3)n2n1` [Compound 315, 6-(2-hydroxypropan-2-yl)-N-(2-methyl-7-phenylpyrazolo[1,5-a]pyrimidin-5-yl)nicotinamide]: the IC50 was in the range of 100 to 1000 nM.

With `CC(C)(O)c1ccc(C(=O)Nc2cc(N3CCC[C@H](C(=O)O)C3)n3nccc3n2)cc1` [Compound 86, (S)-1-(5-(4-(2-hydroxypropan-2-yl)benzamido)pyrazolo[1,5-a]pyrimidin-7-yl)piperidine-3-carboxylic acid], the IC50 was over 1000 nM.

On to `CC(=O)NC1CCN(c2cc(NC(=O)[C@@H]3C[C@H]3c3ccccc3)nc3cc(C)nn23)CC1` [Compound 356, (1R,2R)—N-(7-(4-acetamidopiperidin-1-yl)-2-methylpyrazolo[1,5-a]pyrimidin-5-yl)-2-phenylcyclopropanecarboxamide], for which the IC50 was under 100 nM.

Take `CC(C)(O)c1ccc(C(=O)Nc2cc(N3CCC[C@@H](O)C3)n3nccc3n2)cc1` [Compound 76, (R)—N-(7-(3-hydroxypiperidin-1-yl)pyrazolo[1,5-a]pyrimidin-5-yl)-4-(2-hydroxypropan-2-yl)benzamide]: the IC50 lay within 100 to 1000 nM.

`CC(C)(C)c1ccc(C(=O)Nc2cc(-c3ccc(C(N)=O)cc3)n3nccc3n2)cc1` [Compound 42, 4-tert-butyl-N-(7-(4-carbamoylphenyl)pyrazolo[1,5-a]pyrimidin-5-yl)benzamide]: the IC50 was under 100 nM.

As for `Cc1cc2nc(NC(=O)c3ccc(C(C)(C)CO)cc3)cc(N3CC(O)C3)n2n1` [Compound 97, 4-(1-hydroxy-2-methylpropan-2-yl)-N-(7-(3-hydroxyazetidin-1-yl)-2-methylpyrazolo[1,5-a]pyrimidin-5-yl)benzamide], the IC50 was in the range of 100 to 1000 nM.

On to `CC(C)(O)c1ccc(C(=O)Nc2cc(N3CCOCC3)n3nccc3n2)cc1` [Compound 72, 4-(2-hydroxypropan-2-yl)-N-(7-morpholinopyrazolo[1,5-a]pyrimidin-5-yl)benzamide], for which the IC50 is under 100 nM.

For the compound `Nc1cc(-c2cccs2)n2nccc2n1` [Compound 175, 7-(thiophen-2-yl) pyrazolo[1,5-a]pyrimidin-5-amine], the IC50 is over 1000 nM.

For `CC(C)(C)c1ccc(C(=O)Nc2cc(N3CCCCC3CCO)n3nccc3n2)cc1` (stereo not drawn) [Compound 105, 4-tert-butyl-N-(7-(2-(2-hydroxyethyl)piperidin-1-yl)pyrazolo[1,5-a]pyrimidin-5-yl)benzamide], the IC50 is under 100 nM.

As for `CC(O)(c1ccc(C(=O)Nc2cc(-c3cccc(CO)c3)n3nccc3n2)cc1)C(F)(F)F` (stereo not drawn) [Compound 7, N-(7-(3-(hydroxymethyl)phenyl)pyrazolo[1,5-a]pyrimidin-5-yl)-4-(1,1,1-trifluoro-2-hydroxypropan-2-yl)benzamide], the IC50 was under 100 nM.

Turning to `CC(C)(O)c1ccc(C(=O)Nc2cc(N3CCc4nc[nH]c(=O)c4C3)n3nccc3n2)cc1` [Compound 89, 4-(2-hydroxypropan-2-yl)-N-(7-(4-oxo-3,4,7,8-tetrahydropyrido[4,3-d]pyrimidin-6(5H)-yl)pyrazolo[1,5-a]pyrimidin-5-yl)benzamide], the IC50 is under 100 nM.

With `CC(C)(O)c1ccc(C(=O)Nc2cc(-c3ccccc3)n3nccc3n2)cc1` [Compound 16, 4-(2-Hydroxypropan-2-yl)-N-(7-phenylpyrazolo[1,5-a]pyrimidin-5-yl)benzamide], the IC50 was under 100 nM.

`CC(C)(O)c1ccc(C(=O)Nc2cc(N3CCCCC3CCO)n3nccc3n2)cc1` (stereo not drawn) [Compound 74, N-(7-(2-(2-hydroxyethyl)piperidin-1-yl)pyrazolo[1,5-a]pyrimidin-5-yl)-4-(2-hydroxypropan-2-yl)benzamide]: the IC50 lay within 100 to 1000 nM.

With `CC(C)(O)c1ccc(C(=O)Nc2cc(N3CCC[C@H](C(N)=O)C3)n3nccc3n2)cc1` [Compound 85, (S)-1-(5-(4-(2-hydroxypropan-2-yl)benzamido)pyrazolo[1,5-a]pyrimidin-7-yl)piperidine-3-carboxamide], the IC50 is 100 to 1000 nM.

With `COc1cccc(-c2cc(NC(=O)c3ccc(C(C)(C)C)cc3)nc3ccnn23)c1` [Compound 15, 4-tert-Butyl-N-(7-(3-methoxyphenyl)pyrazolo[1,5-a]pyrimidin-5-yl)benzamide], the half-maximal inhibitory concentration (IC50) is under 100 nM.

For the compound `CC(C)(C)c1ccc(C(=O)Nc2cc(N3CCC(O)CC3)n3nccc3n2)cc1` [Compound 112, 4-tert-butyl-N-(7-(4-hydroxypiperidin-1-yl)pyrazolo[1,5-a]pyrimidin-5-yl)benzamide], the IC50 is under 100 nM.

On to `Cc1cc2nc(NC(=O)c3ccc(C(C)(C)C)cc3)cc(-c3ccc(F)c(CO)c3)n2n1` [Compound 4, 4-tert-butyl-N-(7-(4-fluoro-3-(hydroxymethyl)phenyl)-2-methylpyrazolo[1,5-a]pyrimidin-5-yl)benzamide], for which the IC50 was under 100 nM.

In the case of `Cc1cc2nc(NC(=O)c3ccc(C(C)(C)CO)cc3)cc(N(C)CCc3ccccc3)n2n1` [Compound 127, 4-(1-hydroxy-2-methylpropan-2-yl)-N-(2-methyl-7-(methyl(phenethyl)amino)pyrazolo[1,5-a]pyrimidin-5-yl)benzamide], the IC50 is over 1000 nM.

For the compound `CC(C)(C)c1ccc(C(=O)Nc2cc(NC3CC3)n3nccc3n2)cc1` [Compound 128, 4-tert-butyl-N-[7-(cyclopropylamino)pyrazolo[1,5-a]pyrimidin-5-yl]benzamide], the IC50 was under 100 nM.

Consider `CC(C)(O)c1ccc(C(=O)Nc2cc(N3CCC[C@H]3C(N)=O)n3nccc3n2)cc1` [Compound 92, (S)-1-(5-(4-(2-hydroxypropan-2-yl)benzamido)pyrazolo[1,5-a]pyrimidin-7-yl)pyrrolidine-2-carboxamide], for which the IC50 was over 1000 nM.

Turning to `CC(C)(O)c1ccc(C(=O)Nc2cc(-c3cccc(NS(C)(=O)=O)c3)n3nccc3n2)cc1` [Compound 17, 4-(2-Hydroxypropan-2-yl)-N-(7-(3-(methylsulfonamido)phenyl)pyrazolo[1,5-a]pyrimidin-5-yl)benzamide], the IC50 is 100 to 1000 nM.

As to `CC(C)(C)c1ccc(C(=O)Nc2cc(-c3ccc(S(C)(=O)=O)cc3)n3nccc3n2)cc1` [Compound 8, 4-tert-butyl-N-(7-(4-(methylsulfonyl)phenyl)pyrazolo[1,5-a]pyrimidin-5-yl)benzamide], the half-maximal inhibitory concentration (IC50) is over 1000 nM.
